According to publication PMC7038240 (Antimicrobial Agents and Chemotherapy, 2020):
Read-outs that look alike come from different tables or passages of the source.

Columns and labels:
Experiment in all cases: microbe, parasite or virus in culture
Type in all cases: cell-based
C. freundii = settings: Citrobacter freundii
Description: (§1) The antibacterial activity of cefepime-taniborbactam was compared to that of ceftazidime-avibactam, ceftolozane-tazobactam, and cefepime-tazobactam against a diverse panel of Enterobacterales and P. aeruginosa clinical isolates with defined β-lactamase subtypes (see Table S1 in the supplemental material). IMP-producing strains were excluded, as none of the BLI-protected cephalosporins inhibited IMP sufficiently to provide a clinically relevant rescue of the partner β-lactam, a characteristic also shared by approved BLI-protected carbapenems (meropenem-vaborbactam and imipenem-relebactam). […] The antibacterial activity of the cephalosporins alone was included to ascertain the level of potentiation by the partnered BLI. BLIs were tested at a fixed concentration of 4 μg/ml in all combinations except cefepime-tazobactam, where tazobactam was fixed at a concentration of 8 μg/ml ([38]). The collection comprised 143 clinical isolates collected from 2005 and 2018.
(§2) The in vitro antibacterial activity of the β-lactams alone or in combination with the BLIs was determined in cation-adjusted Mueller-Hinton broth (CAMHB) microdilution assays according to CLSI recommendations ([51]). […]. The inocula for the broth microdilution assays were prepared by the broth culture method ([51]). […]

K. pneumoniae = tested on: K. pneumoniae
Description: as §1, §2

E. coli = tested on: E. coli
Description: as §1, §2

## CC(C)(O/N=C(\C(=O)N[C@@H]1C(=O)N2C(C(=O)[O-])=C(C[n+]3ccccc3)CS[C@H]12)c1csc(N)n1)C(=O)O [CAZ]
C. freundii; strain 134390, AmpC/TEM-1
  MIC: 16 µg/mL
C. freundii; strain 241181, AmpC/TEM-163
  MIC: 8 µg/mL
K. pneumoniae
  MIC: 64 µg/mL
K. pneumoniae; Klebsiella pneumoniae, strain 6299, OXA-163, read-out: MIC
  MIC: 128 µg/mL
K. pneumoniae; Klebsiella pneumoniae, strain 178279, SHV-12/TEM-1/AmpC, read-out: MIC
  MIC: 128 µg/mL
K. pneumoniae; Klebsiella pneumoniae, strain 196477, AmpC, read-out: MIC
  MIC: ≥ 256 µg/mL
K. pneumoniae; Klebsiella pneumoniae, strain 212027, AmpC/FOX-5/TEM-1, read-out: MIC
  MIC: 128 µg/mL
K. pneumoniae; Klebsiella pneumoniae, strain 515746, OXA-48, read-out: MIC
  MIC: 64 µg/mL
K. pneumoniae; Klebsiella pneumoniae, strain 664438, OXA-48, read-out: MIC
  MIC: 128 µg/mL
K. pneumoniae; Klebsiella pneumoniae, strain 664439, OXA-48, read-out: MIC
  MIC: 128 µg/mL
K. pneumoniae; Klebsiella pneumoniae, strain 722870, OXA-48, read-out: MIC
  MIC: 64 µg/mL
K. pneumoniae; Klebsiella pneumoniae, strain 752334, OXA-48, read-out: MIC
  MIC: 128 µg/mL
K. pneumoniae; Klebsiella pneumoniae, strain 769972, OXA-48, read-out: MIC
  MIC: 64 µg/mL
K. pneumoniae; Klebsiella pneumoniae, strain 787422, OXA-48, read-out: MIC
  MIC: 8 µg/mL
K. pneumoniae; Klebsiella pneumoniae, strain 856819, SHV-11/VIM-1, read-out: MIC
  MIC: ≥ 256 µg/mL
K. pneumoniae; Klebsiella pneumoniae, strain 873460, SHV-30/CTX-M-15, read-out: MIC
  MIC: 64 µg/mL
K. pneumoniae; Klebsiella pneumoniae, strain 874328, SHV-11/CTX-M-15/NDM-1, read-out: MIC
  MIC: ≥ 256 µg/mL
K. pneumoniae; Klebsiella pneumoniae, strain 882956, SHV-31/DHA-1/VIM-1, read-out: MIC
  MIC: ≥ 256 µg/mL
K. pneumoniae; Klebsiella pneumoniae, strain 890066, SHV-33/TEM-33/CTX-M-15/IMP-1, read-out: MIC
  MIC: ≥ 256 µg/mL
K. pneumoniae; Klebsiella pneumoniae, strain 892694, SHV-12/TEM-1/CTX-M-15/OXA-48/ACT, read-out: MIC
  MIC: ≥ 256 µg/mL
K. pneumoniae; Klebsiella pneumoniae, strain 919877, SHV-OSBL/VIM-1, read-out: MIC
  MIC: ≥ 256 µg/mL
K. pneumoniae; Klebsiella pneumoniae, strain 1104864, SHV-OSBL(b)/VIM-1, read-out: MIC
  MIC: ≥ 256 µg/mL
K. pneumoniae; Klebsiella pneumoniae, strain 1104866, SHV-OSBL(b)/VIM-1, read-out: MIC
  MIC: ≥ 256 µg/mL
K. pneumoniae; Klebsiella pneumoniae, strain 1280442, SHV-OSBL(b)/VIM-1, read-out: MIC
  MIC: ≥ 256 µg/mL
K. pneumoniae; Klebsiella pneumoniae, strain CDC-0049, NDM, read-out: MIC
  MIC: ≥ 256 µg/mL
K. pneumoniae; Klebsiella pneumoniae, strain CDC-0139, NDM-1, read-out: MIC
  MIC: ≥ 256 µg/mL
K. pneumoniae; Klebsiella pneumoniae, strain CDC-0145, NDM, read-out: MIC
  MIC: ≥ 256 µg/mL
K. pneumoniae; Klebsiella pneumoniae, strain CDC-0148, NDM, read-out: MIC
  MIC: ≥ 256 µg/mL
K. pneumoniae; Klebsiella pneumoniae, strain CDC-0152, NDM, read-out: MIC
  MIC: ≥ 256 µg/mL
K. pneumoniae; Klebsiella pneumoniae, strain DOV, OXA-48, read-out: MIC
  MIC: 64 µg/mL
K. pneumoniae; Klebsiella pneumoniae, strain ESBL8 #1, TEM-1/SHV-12, read-out: MIC
  MIC: ≥ 256 µg/mL
K. pneumoniae; Klebsiella pneumoniae, strain ESBL 10, SHV-12/TEM-1, read-out: MIC
  MIC: 128 µg/mL
K. pneumoniae; Klebsiella pneumoniae, strain KIRK, OXA-162, read-out: MIC
  MIC: 128 µg/mL
K. pneumoniae; Klebsiella pneumoniae, strain SI-C05, OXA-48, read-out: MIC
  MIC: 64 µg/mL
K. pneumoniae; Klebsiella pneumoniae, strain SI-F100, SHV-5/TEM-1/CMY-2, read-out: MIC
  MIC: 32 µg/mL
E. coli
  MIC: 64 µg/mL
E. coli; Escherichia coli, strain 469, AmpC/SHV-12/TEM-1, read-out: MIC
  MIC: 64 µg/mL
E. coli; Escherichia coli, strain 1924, TEM-12, read-out: MIC
  MIC: 32 µg/mL
E. coli; Escherichia coli, strain 664507, OXA-48, read-out: MIC
  MIC: 64 µg/mL
E. coli; Escherichia coli, strain 664516, OXA-48, read-out: MIC
  MIC: 64 µg/mL
E. coli; Escherichia coli, strain 664520, OXA-48, read-out: MIC
  MIC: 64 µg/mL
E. coli; Escherichia coli, strain 664522, OXA-48, read-out: MIC
  MIC: 64 µg/mL
E. coli; Escherichia coli, strain 664523, OXA-48, read-out: MIC
  MIC: 64 µg/mL
E. coli; Escherichia coli, strain 873435, CTX-M-15, read-out: MIC
  MIC: 128 µg/mL
E. coli; Escherichia coli, strain 875627, CTX-M-27, read-out: MIC
  MIC: 8 µg/mL
E. coli; Escherichia coli, strain 878358, TEM-1/CTX-M, read-out: MIC
  MIC: 32 µg/mL
E. coli; Escherichia coli, strain 890500, TEM-1/CTX-M-14, read-out: MIC
  MIC: 4 µg/mL
E. coli; Escherichia coli, strain 1275635, VIM-23, read-out: MIC
  MIC: 128 µg/mL
E. coli; Escherichia coli, strain 1459453, NDM-7, read-out: MIC
  MIC: ≥ 256 µg/mL
E. coli; Escherichia coli, strain CDC-0069, NDM, read-out: MIC
  MIC: ≥ 256 µg/mL
E. coli; Escherichia coli, strain CDC-0149, NDM, read-out: MIC
  MIC: ≥ 256 µg/mL
E. coli; Escherichia coli, strain EC1552 2A, AmpC/CMY-2/TEM-1, CTX-M-15, read-out: MIC
  MIC: 64 µg/mL
E. coli; Escherichia coli, strain ESBL 5, CTX-M-15/TEM-1, read-out: MIC
  MIC: 128 µg/mL
E. coli; Escherichia coli, strain SI-LP377, CTX-M-2, read-out: MIC
  MIC: 8 µg/mL
